Where a SMILES comes first, the peptide text is derived from it. Bridges are numbered along the chain shown (N, C = ends).
Columns and labels:
Cadherin-2 = target: T1, Cadherin-2 (Homo sapiens, UniProt P19022); assay: Antagonist activity at N-cadherin; format: functional
T1 sequence (P19022 whole entry): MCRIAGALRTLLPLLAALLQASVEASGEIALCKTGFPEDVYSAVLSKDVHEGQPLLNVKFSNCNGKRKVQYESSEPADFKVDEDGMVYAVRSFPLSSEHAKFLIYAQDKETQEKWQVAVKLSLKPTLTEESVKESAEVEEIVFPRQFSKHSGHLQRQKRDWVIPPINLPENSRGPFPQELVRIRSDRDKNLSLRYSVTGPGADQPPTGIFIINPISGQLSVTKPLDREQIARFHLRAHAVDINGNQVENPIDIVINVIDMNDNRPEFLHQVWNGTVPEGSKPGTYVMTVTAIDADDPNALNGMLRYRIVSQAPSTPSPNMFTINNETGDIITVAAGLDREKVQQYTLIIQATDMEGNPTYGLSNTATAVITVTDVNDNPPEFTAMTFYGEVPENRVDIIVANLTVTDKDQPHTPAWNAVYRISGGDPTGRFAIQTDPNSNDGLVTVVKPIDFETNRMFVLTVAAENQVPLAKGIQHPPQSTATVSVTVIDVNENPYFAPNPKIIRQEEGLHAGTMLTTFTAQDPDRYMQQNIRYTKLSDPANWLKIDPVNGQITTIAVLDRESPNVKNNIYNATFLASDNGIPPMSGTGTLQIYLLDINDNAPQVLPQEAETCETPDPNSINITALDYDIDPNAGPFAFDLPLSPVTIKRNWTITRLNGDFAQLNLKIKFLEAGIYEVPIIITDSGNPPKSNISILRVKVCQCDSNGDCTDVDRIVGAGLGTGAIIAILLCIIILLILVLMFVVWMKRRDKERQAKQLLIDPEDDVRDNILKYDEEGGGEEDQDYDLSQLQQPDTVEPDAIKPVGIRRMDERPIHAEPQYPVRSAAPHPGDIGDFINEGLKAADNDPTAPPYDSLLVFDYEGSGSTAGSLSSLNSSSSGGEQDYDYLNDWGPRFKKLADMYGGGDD

[1] = Inhibition of bacterial DNA polymerase beta association with DNA polymerase alpha
[2] = Inhibition of bacterial DNA polymerase beta association with DNA polymerase delta
[3] = target: D(2) dopamine receptor (Homo sapiens) (UniProt P14416); assay: Agonist activity at human dopamine D2 receptor at 10 nM; format: functional
[4] = Induction of neurite outgrowth in rat CGN cells at 7.3 uM; format: functional

Sequence of D(2) dopamine receptor (Homo sapiens) (P14416 whole entry): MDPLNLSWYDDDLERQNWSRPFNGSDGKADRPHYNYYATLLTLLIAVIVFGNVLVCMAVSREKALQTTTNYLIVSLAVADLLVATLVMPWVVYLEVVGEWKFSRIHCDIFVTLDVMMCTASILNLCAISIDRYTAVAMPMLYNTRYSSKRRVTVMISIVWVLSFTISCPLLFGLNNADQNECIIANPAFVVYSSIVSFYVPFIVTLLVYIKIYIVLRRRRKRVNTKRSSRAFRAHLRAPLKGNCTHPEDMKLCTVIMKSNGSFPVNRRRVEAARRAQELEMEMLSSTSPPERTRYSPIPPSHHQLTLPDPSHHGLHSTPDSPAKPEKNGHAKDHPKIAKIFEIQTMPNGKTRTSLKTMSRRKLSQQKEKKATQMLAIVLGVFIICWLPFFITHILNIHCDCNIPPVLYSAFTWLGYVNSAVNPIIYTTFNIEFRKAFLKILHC

| IC50 [1] [µM] | IC50 [2] [µM] | Compound | other results |
| --- | --- | --- | --- |
|  |  | CC(=O)N[C@H]1CSSC[C@@H](C(N)=O)NC(=O)[C@H](CC(=O)O)NC(=O)[C@H](C(C)C)NC(=O)[C@H](C)NC(=O)[C@H](Cc2cnc[nH]2)NC1=O (Ac-CHAVDC-NH2; disulfide 1-6) | IC50 (Cadherin-2): 5 µM |
| 350 | 290 | CCC/C(=N\OC/C(Cl)=C/c1ccc(Cl)cc1)C1C(=O)CC(C)(C)CC1=O |  |
| 270 | 90 | CCC/C(=N\OCc1ccc(-c2ccccc2)cc1)C1C(=O)CC(C)(C2OCC(C)(C)CO2)OC1=O (configuration not stated) |  |
|  |  | N[C@@H](Cc1ccccc1)C(=O)NC1C(=O)N(CC(=O)O)C[C@H]1CC(=O)O (some centres not stated) | Activity [3]: 146% |
|  |  | CC[C@H](C)[C@@H]1NC(=O)[C@H](CC(=O)O)NC(=O)[C@H](C(C)C)NC(=O)[C@H](C)NC(=O)[C@H](Cc2cnc[nH]2)NC(=O)CNC(=O)[C@H](CC(N)=O)NC(=O)[C@H]([C@@H](C)CC)NC(=O)[C@H](CC(=O)O)NC(=O)[C@H](C(C)C)NC(=O)[C@H](C)NC(=O)[C@H](Cc2cnc[nH]2)NC(=O)[C@@H](NC(C)=O)CSSC[C@@H](C(N)=O)NC1=O (Ac-CHAVDINGHAVDIC-NH2; disulfide 1-14) | Activity [4]: 70% |

Reference: ChEMBL document CHEMBL1687877, “Tripeptide motifs in biology: targets for peptidomimetic design” (J Med Chem, 2011)
